According to patent US20250360235A1, “RADI[…] AND METHOD FOR RADIOLABELLING” (Telix Innovations SA, priority 2024, published 2025):

Assay: Radiochemical purity by iTLC over time after radiolabelling
Assay type: physicochemical
Experimental: Table 1 to Table 5 show the results of various radiolabelling experiments on radiochemical purity and the chelation yield. The radiolabelling experiments in the tables are carried out as described in: • Example 1 for when the gallium-68 source is GE Liquid target generator and EZAG GalliaPharm generator; • Example 2 for when the gallium-68 source is IRE Galli Eo generator; • Example 3 for when the gallium-68 source is GE solid target generator;
However, the experiments were carried out with the amount of ascorbic acid as indicated in the Tables 1 to 5, and the activity as indicated in the Tables 1 to 5. Radiochemical purities were measured at various times (T0, T1, T4, T6) after the radiolabelled experiments have been conducted.
The kits of Example 1, Example 2 or Example 3, with amounts of ascorbic acid as set out in Table 7 were used in the experiments for the ascorbic acid bracketing matrix. Three strengths of [^68Ga]Ga-PSMA-11 will be tested, i.e. 50 mCi/ml, 7 mCi/ml and 1 mCi/ml. Radiochemical purity was determined at different time points (TO, T1, T4 or T6), as set out in Table 7.

[1] = validation batches, 25 mg ascorbic acid, 51.6-62.7 mCi, 4.56-5.88 mCi/mL, IRE Galli Eo, average of 3, T0
[2] = validation batches, 25 mg ascorbic acid, 51.6-62.7 mCi, 4.56-5.88 mCi/mL, IRE Galli Eo, average of 3, T4 (4 h)
[3] = validation batches, 25 mg ascorbic acid, 51.6-62.7 mCi, 4.56-5.88 mCi/mL, IRE Galli Eo, n=3, T0
[4] = validation batches, 25 mg ascorbic acid, 51.6-62.7 mCi, 4.56-5.88 mCi/mL, IRE Galli Eo, n=3, T4 (4 h)
[5] = validation batches, 25 mg ascorbic acid, 53.3-74.4 mCi, 5.03-6.92 mCi/mL, GE Liquid target, average of 3, T0
[6] = validation batches, 25 mg ascorbic acid, 53.3-74.4 mCi, 5.03-6.92 mCi/mL, GE Liquid target, average of 3, T4 (4 h)
[7] = validation batches, 25 mg ascorbic acid, 53.3-74.4 mCi, 5.03-6.92 mCi/mL, GE Liquid target, n=3, T0
[8] = validation batches, 25 mg ascorbic acid, 53.3-74.4 mCi, 5.03-6.92 mCi/mL, GE Liquid target, n=3, T4 (4 h)
[9] = validation batches, 25 mg ascorbic acid, 65.0-66.4 mCi, 5.74-6.15 mCi/mL, EZAG GalliaPharm, average of 3, T0
[10] = validation batches, 25 mg ascorbic acid, 65.0-66.4 mCi, 5.74-6.15 mCi/mL, EZAG GalliaPharm, average of 3, T4 (4 h)
[11] = validation batches, 25 mg ascorbic acid, 65.0-66.4 mCi, 5.74-6.15 mCi/mL, EZAG GalliaPharm, n=3, T0
[12] = validation batches, 25 mg ascorbic acid, 65.0-66.4 mCi, 5.74-6.15 mCi/mL, EZAG GalliaPharm, n=3, T4 (4 h)
[13] = validation batches, 25 mg ascorbic acid, 537-551 mCi, 50.2-51.6 mCi/mL, GE Solid Target, average of 3, T0
[14] = validation batches, 25 mg ascorbic acid, 537-551 mCi, 50.2-51.6 mCi/mL, GE Solid Target, average of 3, T6 (6 h)
[15] = validation batches, 25 mg ascorbic acid, 537-551 mCi, 50.2-51.6 mCi/mL, GE Solid Target, n=3, T0
[16] = validation batches, 25 mg ascorbic acid, 537-551 mCi, 50.2-51.6 mCi/mL, GE Solid Target, n=3, T6 (6 h)
[17] = validation batches, 25 mg ascorbic acid, 555-564 mCi, 51.1-52.7 mCi/mL, ARTMS Solid Target, average of 3, T0
[18] = validation batches, 25 mg ascorbic acid, 555-564 mCi, 51.1-52.7 mCi/mL, ARTMS Solid Target, average of 3, T6 (6 h)
[19] = validation batches, 25 mg ascorbic acid, 555-564 mCi, 51.1-52.7 mCi/mL, ARTMS Solid Target, n=3, T0
[20] = validation batches, 25 mg ascorbic acid, 555-564 mCi, 51.1-52.7 mCi/mL, ARTMS Solid Target, n=3, T6 (6 h)

SMILES: O=C([O-])CN(CCN(CC(=O)[O-])Cc1cc(CCC(=O)NCCCCCC(=O)NCCCC[C@H](NC(=O)N[C@@H](CCC(=O)O)C(=O)O)C(=O)O)ccc1[O-])Cc1cc(CCC(=O)O)ccc1[O-].[68Ga+3].[OH3+] [[^68Ga]PSMA-11, gallium-68 radiolabelled Glu-urea-Lys-HBED-CC (gozetotide or PSMA-11)]
- Radiochemical Purity (iTLC) Ga-68 PSMA-11 (%) (bracketing ~50 mCi/mL, 31.25 mg ascorbic acid, 500-544 mCi, 48.1-51.7 mCi/mL, GE Solid Target, average of 2, T6 (6 h)): 99%
- Radiochemical Purity (iTLC) Free and Colloidal Ga-68 (%) [1]: 0%
- Radiochemical Purity (iTLC) Ga-68 PSMA-11 (%) [1]: 100%
- Radiochemical Purity (iTLC) Free and Colloidal Ga-68 (%) [2]: 1%
- Radiochemical Purity (iTLC) Ga-68 PSMA-11 (%) [2]: 99%
- Radiochemical Purity (iTLC) Free and Colloidal Ga-68 (%) [3]: C (C = all results conform to specifications)
- Radiochemical Purity (iTLC) Ga-68 PSMA-11 (%) [3]: C (C = all results conform to specifications)
- Radiochemical Purity (iTLC) Free and Colloidal Ga-68 (%) [4]: C (C = all results conform to specifications)
- Radiochemical Purity (iTLC) Ga-68 PSMA-11 (%) [4]: C (C = all results conform to specifications)
- Radiochemical Purity (iTLC) Free and Colloidal Ga-68 (%) [5]: 1%
- Radiochemical Purity (iTLC) Ga-68 PSMA-11 (%) [5]: 99%
- Radiochemical Purity (iTLC) Free and Colloidal Ga-68 (%) [6]: 0%
- Radiochemical Purity (iTLC) Ga-68 PSMA-11 (%) [6]: 100%
- Radiochemical Purity (iTLC) Free and Colloidal Ga-68 (%) [7]: C (C = all results conform to specifications)
- Radiochemical Purity (iTLC) Ga-68 PSMA-11 (%) [7]: C (C = all results conform to specifications)
- Radiochemical Purity (iTLC) Free and Colloidal Ga-68 (%) [8]: C (C = all results conform to specifications)
- Radiochemical Purity (iTLC) Ga-68 PSMA-11 (%) [8]: C (C = all results conform to specifications)
- Radiochemical Purity (iTLC) Free and Colloidal Ga-68 (%) [9]: 0%
- Radiochemical Purity (iTLC) Ga-68 PSMA-11 (%) [9]: 100%
- Radiochemical Purity (iTLC) Free and Colloidal Ga-68 (%) [10]: 2%
- Radiochemical Purity (iTLC) Ga-68 PSMA-11 (%) [10]: 98%
- Radiochemical Purity (iTLC) Free and Colloidal Ga-68 (%) [11]: C (C = all results conform to specifications)
- Radiochemical Purity (iTLC) Ga-68 PSMA-11 (%) [11]: C (C = all results conform to specifications)
- Radiochemical Purity (iTLC) Free and Colloidal Ga-68 (%) [12]: C (C = all results conform to specifications)
- Radiochemical Purity (iTLC) Ga-68 PSMA-11 (%) [12]: C (C = all results conform to specifications)
- Radiochemical Purity (iTLC) Free and Colloidal Ga-68 [13]: 0%
- Radiochemical Purity (iTLC) Ga-68 PSMA-11 [13]: 100%
- Radiochemical Purity (iTLC) Free and Colloidal Ga-68 [14]: 1%
- Radiochemical Purity (iTLC) Ga-68 PSMA-11 [14]: 99%
- Radiochemical Purity (iTLC) Free and Colloidal Ga-68 [15]: C (C = all results conform to specifications)
- Radiochemical Purity (iTLC) Ga-68 PSMA-11 [15]: C (C = all results conform to specifications)
- Radiochemical Purity (iTLC) Free and Colloidal Ga-68 [16]: C (C = all results conform to specifications)
- Radiochemical Purity (iTLC) Ga-68 PSMA-11 [16]: C (C = all results conform to specifications)
- Radiochemical Purity (iTLC) Free and Colloidal Ga-68 [17]: 1%
- Radiochemical Purity (iTLC) Ga-68 PSMA-11 [17]: 99%
- Radiochemical Purity (iTLC) Free and Colloidal Ga-68 [18]: 0%
- Radiochemical Purity (iTLC) Ga-68 PSMA-11 [18]: 100%
- Radiochemical Purity (iTLC) Free and Colloidal Ga-68 [19]: C (C = all results conform to specifications)
- Radiochemical Purity (iTLC) Ga-68 PSMA-11 [19]: C (C = all results conform to specifications)
- Radiochemical Purity (iTLC) Free and Colloidal Ga-68 [20]: C (C = all results conform to specifications)
- Radiochemical Purity (iTLC) Ga-68 PSMA-11 [20]: C (C = all results conform to specifications)
